This assay in a line: Inhibition of PI3Kbeta human in PTEN wild type HCC1954 cells assessed as cell growth inhibition.

We go through 6 compounds from BindingDB's records for doi:10.1021/ml300330m (Glaxosmithkline, 2013).

With `Cc1nn2c(NC(N)=O)cc(N3CCOCC3)nc2c1Cc1cccc(C(F)(F)F)c1C`, the EC50 came to 12.6 µM.

`Cc1nn2c(N)cc(N3CCOCC3)nc2c1Cc1cccc(C(F)(F)F)c1C`: the 50% effective concentration (EC50) was found to be 12.6 µM. Consider `Cc1nn2c(O)cc(N3CCOCC3)nc2c1Cc1cccc(C(F)(F)F)c1C`, for which the EC50 stood at 15.8 µM.

For `Cc1c(Cc2cnn3c(O)cc(N4CCOCC4)nc23)cccc1C(F)(F)F`, the EC50 amounted to 15.8 µM.

Turning to `Cc1nn2c(O)cc(C3CCOCC3)nc2c1Cc1cccc(C(F)(F)F)c1C`, the EC50 was 25.1 µM.

`Cc1nn2c(O)cc(N3CCOCC3)nc2c1Cc1cccc2ccccc12`: the EC50 was found to be 31.6 µM.

The EC50 is the concentration at which the effect is half-maximal.
